In article PMC9250970, “Role of Helical Structure in MBP Immunodominant Peptides for Efficient IgM Antibody Recognition in Multiple Sclerosis” (Frontiers in Chemistry, 2022):
Entries after “also recorded” stand apart in the source; their conditions may differ.

Key:
[1] = system: anti-MBP protein IgM antibodies of MS serum; assay: Inhibition (competitive) ELISA, MBP protein coated; format: binding, human; details: tested MS serum; peptides 1 and 2 as inhibitors
Source text: (§1) Fifteen Multiple Sclerosis (MS) patients were recruited in the Multiple Sclerosis Clinical Care and Research Centre, Department of Neurosciences, Reproductive Sciences and Odontostomatology, Federico II University (Naples, Italy). The relapsing-remitting MS (RR-MS) patients were previously diagnosed after a lumbar puncture, cerebrospinal fluid analysis, and MRI examination and fulfilled the established international diagnostic criteria ([Polman et al., 2011]; [Thompson et al., 2018]). The present study was conducted in accordance with the Declaration of Helsinki. The performed experimental protocols were approved by the Ethics Committee 2006 (protocol n. 120/06) and 2017 (protocol n. 160/17). […]
(§2) Nunc-Immuno MicroWell 96 well polystyrene ELISA plates (NUNC Maxisorb, product code M9410, Merck, Milan, Italy) were coated with a solution 10 μg/ml of the peptide antigens in pure carbonate buffer 0.05 M (pH 9.6) adding 100 μL/well, and microplates were incubated at 4°C overnight. […] Antibody affinity was measured following the competitive ELISA previously reported ([Real-Fernández et al., 2015]). Semi-saturating sera dilution was previously calculated in preliminary titration curves (absorbance 0.7). […] After approximately 30 min, the reaction was stopped with 1 M NaOH solution (50 μL/well), and the absorbance was read in a multichannel ELISA reader (Tecan Sunrise, Männedorf, Switzerland) at 405 nm. […]

[2] = system: IgM antibodies in MS patient sera; assay: Solid-phase ELISA (SP-ELISA), IgM; format: binding, human; details: peptide coated 10 μg/ml; for patients in whose serum IgM antibodies were detected: 1 out of 15 patients, sera 1:100; for IgM antibody detection (in words): fifteen MS patient sera 1:100, carbonate buffer pH 9.6, anti-human IgM 1:200, 405 nm
Source text: Fifteen Multiple Sclerosis (MS) patients were recruited in the Multiple Sclerosis Clinical Care and Research Centre, Department of Neurosciences, Reproductive Sciences and Odontostomatology, Federico II University (Naples, Italy). The relapsing-remitting MS (RR-MS) patients were previously diagnosed after a lumbar puncture, cerebrospinal fluid analysis, and MRI examination and fulfilled the established international diagnostic criteria ([Polman et al., 2011]; [Thompson et al., 2018]). The present study was conducted in accordance with the Declaration of Helsinki. The performed experimental protocols were approved by the Ethics Committee 2006 (protocol n. 120/06) and 2017 (protocol n. 160/17). Blood samplings were performed during the routine follow-up of patients, while the healthy control samplings were carried out during routine health checks or blood donations. Sera samples were obtained for diagnostic purposes from patients and healthy controls who had given their informed consent. Blood samples were centrifuged at 4,000 rpm for 10 min and sera supernatant was stored at -20°C until use.
Immunoassays were performed to evaluate IgM or IgG antibodies in sera by SP-ELISA. At this purpose, the synthetic antigens were coated on 96-well plates (NUNC Maxisorb, product code M9410, Merck, Milan, Italy). Coating conditions were set-up independently for each peptide and results are reported in the Supplementary Material. Polystyrene 96-well ELISA plates were coated with 100 μL/well of a 10 μg/ml solution of synthetic peptide antigens 1-6 diluted in pure carbonate buffer 0.05 M (pH 9.6), independently. After overnight incubation at 4°C, plates were washed (3×) using washing buffer. Nonspecific binding sites were blocked with 100 μL/well of fetal bovine serum buffer (10% FBS in washing buffer) at room temperature for 1 h. FBS buffer was removed, and plates were incubated overnight at 4°C with sera (diluted 1:100 in FBS buffer, 100 μL/well). After three washes, plates were treated with 100 μL/well of anti-human IgG or IgM alkaline phosphatase-conjugated specific antibodies diluted in FBS buffer 1:3,000 (IgG) and 1:200 (IgM) for all tested antigens. […] Colorimetric reaction was carried out adding 100 μl of substrate reaction solution (1 mg/ml pNPP, MgCl2 0.01 M in carbonate buffer, pH 9.6) to each well and plates were read at 405 nm using a TECAN plate reader. After 30 min, the reaction was stopped with 1 M NaOH solution (50 μL/well) and the absorbance was read in a multichannel ELISA reader (Tecan Sunrise, Männedorf, Switzerland) at 405 nm. Antibody titer values were calculated as (mean Abs of serum triplicate)—(mean Abs of blank triplicate) representing graphically the calculated mean values. […]

[3] = Circular dichroism (secondary structure); format: physicochemical; details: for % helix / effect of temperature on secondary structure / self-aggregation (in words) / secondary structure (in words) / effect of temperature on secondary structure (in words): CD; for % helix: H2O:TFE (50:50, v:v); for effect of temperature on secondary structure / self-aggregation (in words): PBS pH 7.4, 10 to 60°C in increments of 5°C; for effect of temperature on secondary structure (in words): Supplementary Figures S14, S15, various temperatures (10 to 60°C)
Description: CD spectra were recorded on JASCO J-815 with increasing temperature from 10 to 60°C in increments of 5°C between λ = 270 and 185 nm. The CD measurements were carried out in H2O, a mixture of H2O:TFE (50:50, v:v) and PBS (phosphate buffered saline, pH 7.4, containing: sodium chloride, potassium chloride, sodium phosphate dibasic, potassium phosphate monobasic). The spectra were registered with the following parameters: 0.2 nm resolution, 1.0 nm bandwidth, 20 mdeg sensitivity, 0.25 s response, 100 nm min^−1 scanning speed, 5 scans, and 0.02 cm cuvette path length. The CD spectra of solvents were recorded and subtracted from the raw data. The spectra were corrected by a baseline that was measured with the identical solvent in the same cell. The CD intensity is given as mean residue molar ellipticity (θ) [deg × cm^2 × dmol^−1].

[4] = NMR conformational analysis in DPC micelles; format: physicochemical; details: 1H NMR (chemical shift and NOE), 100 mM DPC-d38, 50 mM potassium phosphate pH 6.5, 10% D2O, 25°C; remaining regions random coil
Description: The samples for NMR spectroscopy were prepared by dissolving the appropriate amount of peptide in 50 mM potassium phosphate buffer (pH 6.5), 10% D2O, and 100 mM DPC-d38. NMR spectra were recorded on a Varian INOVA 600 MHz spectrometer equipped with a z-gradient 5 mm triple-resonance probe head. Spectra were recorded at a temperature of 25°C. The spectra were calibrated relative to TSP (0.00 ppm) as internal standard. One-dimensional (1D) NMR spectra were recorded in the Fourier mode with quadrature detection. The water signal was suppressed by gradient echo ([Hwang and Shaka, 1995]). 2D DQF-COSY ([Piantini et al., 1982]; [Marion and Wüthrich, 1983]), TOCSY ([Braunschweiler and Ernst, 1983]), and NOESY ([Jenner et al., 1979]) spectra were recorded in the phase-sensitive mode. Data block sizes were 2048 addresses in T2 and 512 equidistant T1 values. Before Fourier transformation, the time domain data matrices were multiplied by shifted sin2 functions in both dimensions. A mixing time of 70 ms was used for the TOCSY experiments. NOESY experiments were run with mixing time of 100 ms.

[5] = system: anti-MBP (76–116) IgM antibodies of MS serum; assay: Inhibition (competitive) ELISA, MBP (76–116) (2) coated; format: binding, human
Source text: as §1, §2

[6] = system: IgG antibodies in MS patient sera; assay: Solid-phase ELISA (SP-ELISA), IgG; format: binding; details: fifteen MS patient sera 1:100; peptide coated 10 μg/ml, carbonate buffer pH 9.6; anti-human IgG 1:3,000; 405 nm
Source text: as §1
Immunoassays were performed to evaluate IgM or IgG antibodies in sera by SP-ELISA. […] Colorimetric reaction was carried out adding 100 μl of substrate reaction solution (1 mg/ml pNPP, MgCl2 0.01 M in carbonate buffer, pH 9.6) to each well and plates were read at 405 nm using a TECAN plate reader. After 30 min, the reaction was stopped with 1 M NaOH solution (50 μL/well) and the absorbance was read in a multichannel ELISA reader (Tecan Sunrise, Männedorf, Switzerland) at 405 nm. Antibody titer values were calculated as (mean Abs of serum triplicate)—(mean Abs of blank triplicate) representing graphically the calculated mean values. […]

| Sequence | inhibition of IgM antibody binding to MBP protein (in words) [1] | patients in whose serum IgM antibodies were detected [2] [%] | IgM antibody detection (in words) [2] | % helix ([3]; 25°C) [%] | effect of temperature on secondary structure / self-aggregation (in words) [3] | secondary structure (in words) ([3]; PBS pH 7.4, 25°C) | effect of temperature on secondary structure (in words) [3] | secondary structure (in words) ([3]; water, 25°C) | minimum of CD spectrum attributed to beta structures (aggregation) ([3]; PBS pH 7.4, increasing temperature, temperature-induced self-aggregation) | helical structure, residues [4] | affinity of IgMs in competitive ELISA, fold greater than longer analogue MBP (76–116) (2) ([5]; competitive ELISA, MS serum, compared to the longer analogue) [fold] | antibody affinity/recognition in competitive experiment (in words) ([5]; solution conditions of the competitive experiments, peptide 1 vs. peptide 2) | IgG antibody reactivity (in words) [6] |
| --- | --- | --- | --- | --- | --- | --- | --- | --- | --- | --- | --- | --- | --- |
| SQHGRTQDENPVVHFFKNIVTPRTPPPSQGKGRGLSLSRFS [MBP (76–116) (2), elongated synthetic peptide, fragment 76–116 of myelin basic protein] | able to inhibit IgM antibody binding to MBP protein in the tested MS serum with comparable IC50 | 7 | IgM antibodies were detected in one representative patient serum; also recorded: able to detect a high, stable, and reproducible IgM antibody titer | 3 | shift of the minimum to lower wavelength and a strong decrease of the signal intensity; also recorded: temperature-induced peptide self-aggregation, likely in beta structures | random coil structures | no spectral differences of secondary peptide structure at various temperatures | randomly structured in water solution | about 205 nm | 87–96 | – | – | – |
| TQDENPVVHFFKNIVTPRTPPPSQGK [MBP (81–106) (1), synthetic peptide, fragment 81–106 of myelin basic protein, covering the immunodominant region] | able to inhibit IgM antibody binding to MBP protein in the tested MS serum with comparable IC50 | 7 | slightly recognized IgGs and IgMs | 14 | no differences of secondary structure at various temperatures | – | no spectral differences of secondary peptide structure at various temperatures | randomly structured in water solution | – | 87–96 | 4 | recognized more efficiently by antibodies in the solution conditions of the competitive experiments | To a lesser extent, also against peptide MBP (81–106) (1); also recorded: slightly recognized IgGs and IgMs |
| TPPPSQGK [MBP (99–106) (6)] | – | – | – | – | – | – | – | – | – | – | – | – | nonspecific IgG antibody reactivity |
